Results: article PMC10791743, “Selective CK1α degraders exert antiproliferative activity against a broad range of human cancer cell lines” (Nature Communications, 2024)
Several values for one entry are separate records, joined by “and”; a condition that tells them apart may be missing. Equal values may be shown once.

Experiments:
MOLM-13 cells [1] = assay: MOLM-13 cell viability assay (CTG, 72 h); type: cell-based, human; set-up: key to Cell viability in MOLM-13 cells / cell viability, dose-response replicate values: % viability = 100 − % activity, normalized to controls; conditions: for Cell viability in MOLM-13 cells: SJ7095 series
Procedure: The primary screen was performed in 384-well format using the CellTiter Glo (CTG) luminescent cell viability assay (Promega) as previously described. […] After overnight incubation at 37 °C in a humidified 5% CO2 incubator, cells were treated with compounds in dose–response format using a Pintool on a Biomek FX^P Laboratory Automation Workstation (Beckman Coulter). […] Luminescence signal was measured using an EnVision plate reader (PerkinElmer). […]
number per well and incubated overnight at 37 °C in a humidified 5 % CO2 incubator. Compounds were transferred to the assay plate from a dose-response plate using a Labcyte Echo 650 Acoustic Liquid Handler (Beckman Coulter , USA). […]
using Promega’s CellTiter-Glo reagent according to the manufacturer’s recommendation.
Luminescence was measured on the Envision plate reader (PerkinElmer, USA). Raw luminescence relative light unit (RLU) values for each compound at each concentration were normalized to obtain % activity using the following equation (1): 100 × [(mean(negctrl) – compound)/(mean (negctrl) – mean (posctrl))]. The % activity was converted to % viability using the following equation (2):
(100 – % activity), and then pooled from replicate experiments prior to fitting. Here, negctrl and posctrl refer to the negative (DMSO) and positive controls (staurosporine) on each plate. Dose-response curves were fit to the Hill equation using the GraphPad Prism (version 10). […]

MOLM-13 cells [2] = assay: TMT quantitative proteomics in MOLM-13; type: cell-based, human; conditions: for TMT protein intensity, CDKN1A, replicate values: DMSO 3.10E+04, 3.47E+04; for TMT protein intensity, CSNK1A1, replicate values: DMSO 4.01E+05, 4.09E+05
Procedure: We next carried out a tandem mass tag (TMT) quantitative proteomics experiment[30] to identify the neosubstrates whose degradation is induced by SJ7095. […] We confirmed the proteomics results by immunoblot analysis of CK1α in MOLM-13 cells following treatment with increasing concentrations of SJ7095 over 4 h (Fig. 2b). Under these conditions compound SJ7095 induced dose-dependent reduction of CK1α protein levels with DC50 value of 15 nM.
Each compound was tested in three wells of 2 million MOLM-13 cells each. […] Cells were then collected and washed with DPBS. Washed cells were centrifuged at 400×g for 5 min at 4 °C, the supernatant was removed, and pellets were snap frozen in liquid nitrogen and stored at −80 °C until sample submission.
The experiment was performed with a previously optimized protocol[30] with slight modification. Cell pellets were lysed in lysis buffer (50 mM HEPES, pH 8.5, 8 M urea, and 0.5% sodium deoxycholate). To profile the whole proteome, the protein lysates (approximately 100 µg of protein per sample) were proteolyzed with LysC (Wako) at an enzyme-to-substrate ratio of 1:100 (w/w) for 2 h at 21 °C. Following this the samples were diluted to a final 2 M Urea concentration, and further digested with trypsin (Promega) at an enzyme-to-substrate ratio of 1:50 (w/w) for at least 3 h. The peptides were reduced by adding 1 mM DTT for 30 min at 21 °C followed by alkylation with 10 mM iodoacetamide (IAA) for 30 min in the dark. The unreacted IAA was quenched with 30 mM DTT for 30 min. Finally, the digestion was stopped by adding trifluoroacetic acid (TFA) to 1%, desalted using C18 cartridges (Harvard Apparatus), and dried by speedvac. The purified peptides were resuspended in 50 mM HEPES (pH 8.5), and labeled with TMT reagents (Thermo Scientific). The differentially labeled samples were pooled equally, desalted, and dried for the subsequent peptide fractionation. Peptide analysis by two-dimensional liquid chromatography–tandem mass spectrometry (LC/LC–MS/MS) and MS data analysis are described in Supplementary Material. […]
Identification/quantification of proteins
The MS/MS raw data were processed by a tag-based hybrid search engine, JUMP7. The data was […]
concatenated with a reversed decoy database for evaluating False Discovery Rate (FDR). Searches were performed using a 15 ppm mass tolerance for precursor ions, fully tryptic restriction with two maximal missed cleavages, three maximal modification sites, and the assignment of b, and y ions.
TMT tags on lysine residues and N-termini (+304.2071453 Da for TMT16 and TMT18) were used for static modifications. In addition, oxidation of Methionine (Met) was considered as a dynamic modification (+15.99492 Da). Putative peptide spectral matches (PSMs) were filtered by mass accuracy and then grouped by precursor ion charge state and further filtered by JUMP-based matching scores, Jscore and ΔJn, to achieve the protein FDR below 1%. For quantification, TMT intensities of reporter ions were extracted, filtered, normalized, and summarized into peptide and […]
Differential expression analysis of proteins
Identification of differentially expressed proteins were conducted by the limma R package8. To control multiple testing, the Benjamini-Hochberg method was employed. Proteins with an adjusted […]
p value of < 0.05 and log2 fold change of > 2-fold of standard deviation (SD) were defined as differentially expressed. […]

In the case of O=C1CCC(N2Cc3c(CNC(=O)c4ccc(F)cc4)cccc3C2=O)C(=O)N1 (stereo not drawn) [SJ7095], the “Effect on MOLM-13 cell viability (cytotoxicity)” value (MOLM-13 cells [1]; CTG 72 h) is reported as “high toxicity against MOLM-13 cells”, the IC50 (MOLM-13 cells [1]; Homo sapiens, MOLM-13, CTG 72 h, read-out: IC50, MOLM-13 cell growth/viability) is reported as 71 nM and the “Cell viability in MOLM-13 cells” value (MOLM-13 cells [1]; Conc 0.00049449) is reported as 80.5902 and 73.7069 and 73.7893. For the same molecule, the “Cell viability in MOLM-13 cells” value (MOLM-13 cells [1]; Conc 0.00148346) was 82.2036 and 73.2259 and 66.8432, the “Cell viability in MOLM-13 cells” value (MOLM-13 cells [1]; Conc 0.00445039) was 62.2665 and 53.3724 and 60.8209 and the “Cell viability in MOLM-13 cells” value (MOLM-13 cells [1]; Conc 0.0133512) was 41.9606 and 38.8721 and 37.6352. For the same molecule, the “Cell viability in MOLM-13 cells” value (MOLM-13 cells [1]; Conc 0.0400535) was 36.9208 and 28.2407 and 35.9101, the “Cell viability in MOLM-13 cells” value (MOLM-13 cells [1]; Conc 0.12016) was 28.8773 and 35.0792 and 25.4306 and the “Cell viability in MOLM-13 cells” value (MOLM-13 cells [1]; Conc 0.360481) was 19.8758 and 18.9138 and 19.7816. For the same molecule, the “Cell viability in MOLM-13 cells” value (MOLM-13 cells [1]; Conc 1.08144) was 22.2039 and 16.4235 and 15.6504, the “Cell viability in MOLM-13 cells” value (MOLM-13 cells [1]; Conc 3.24433) was 17.3048 and 13.4196 and 15.362 and the “Cell viability in MOLM-13 cells” value (MOLM-13 cells [1]; Conc 9.733 (unit not given), replicates) was 7.49 and 6.672 and 5.493. For the same molecule, the “Log2FC vs. DMSO, CDKN1A (Cyclin-dependent kinase inhibitor 1)” value (MOLM-13 cells [2]; 1uM, 4h) was 1.031, the “Log2FC vs. DMSO, CSNK1A1 (Casein kinase I isoform alpha)” value (MOLM-13 cells [2]; 1uM, 4h) was -1.331 and the “TMT protein intensity, CDKN1A, replicate values” (from here on “TMT protein intensity, CDKN1A”) (MOLM-13 cells [2]; 1uM, 4h) was 6.19E+04 and 7.24E+04. For the same molecule, the “TMT protein intensity, CSNK1A1, replicate values” (shortened to “TMT protein intensity, CSNK1A1”) (MOLM-13 cells [2]; 1uM, 4h) was 1.55E+05 and 1.67E+05, the “Log2FC vs. DMSO, CDKN1A (Cyclin-dependent kinase inhibitor 1)” value (MOLM-13 cells [2]; 1uM, 8h) was 1.234 and the “Log2FC vs. DMSO, CSNK1A1 (Casein kinase I isoform alpha)” value (MOLM-13 cells [2]; 1uM, 8h) was -1.306. The “TMT protein intensity, CDKN1A” value (MOLM-13 cells [2]; 1uM, 8h) was 7.09E+04 and 8.39E+04, the “TMT protein intensity, CSNK1A1” value (MOLM-13 cells [2]; 1uM, 8h) was 1.62E+05 and 1.65E+05 and the “Log2FC vs. DMSO, CDKN1A (Cyclin-dependent kinase inhibitor 1)” value (MOLM-13 cells [2]; 1uM, 24h) was 1.074. For the same molecule, the “Log2FC vs. DMSO, CSNK1A1 (Casein kinase I isoform alpha)” value (MOLM-13 cells [2]; 1uM, 24h) was -1.500, the “TMT protein intensity, CDKN1A” value (MOLM-13 cells [2]; 1uM, 24h) was 7.28E+04 and 6.55E+04 and the “TMT protein intensity, CSNK1A1” value (MOLM-13 cells [2]; 1uM, 24h) was 1.44E+05 and 1.42E+05. For the same molecule, the “Proteins significantly degraded (TMT proteomics)” value (MOLM-13 cells [2]; 5 µM, 4 h) was “significant degradation of only three proteins out of over 9000 identified proteins was observed: CK1α, IKZF1, and IKZF3”, the “Log2FC vs. DMSO, CDKN1A” value (MOLM-13 cells [2]; 5uM, 4h) was 1.546 and the “Log2FC vs. DMSO, CSNK1A1” value (MOLM-13 cells [2]; 5uM, 4h) was -1.318. The “Log2FC vs. DMSO, CDKN1A (Cyclin-dependent kinase inhibitor 1)” value (MOLM-13 cells [2]; 5uM, 8h) was 1.278, the “Log2FC vs. DMSO, CSNK1A1 (Casein kinase I isoform alpha)” value (MOLM-13 cells [2]; 5uM, 8h) was -1.485 and the “TMT protein intensity, CDKN1A” value (MOLM-13 cells [2]; 5uM, 8h) was 8.76E+04 and 7.22E+04. For the same molecule, the “TMT protein intensity, CSNK1A1” value (MOLM-13 cells [2]; 5uM, 8h) was 1.51E+05 and 1.38E+05, the “Log2FC vs. DMSO, CDKN1A (Cyclin-dependent kinase inhibitor 1)” value (MOLM-13 cells [2]; 5uM, 24h) was 1.163 and the “Log2FC vs. DMSO, CSNK1A1 (Casein kinase I isoform alpha)” value (MOLM-13 cells [2]; 5uM, 24h) was -1.582. The “TMT protein intensity, CDKN1A” value (MOLM-13 cells [2]; 5uM, 24h) was 7.42E+04 and 7.27E+04, the “TMT protein intensity, CSNK1A1” value (MOLM-13 cells [2]; 5uM, 24h) was 1.48E+05 and 1.23E+05 and the “Log2FC vs. DMSO, CDKN1A (Cyclin-dependent kinase inhibitor 1)” value (MOLM-13 cells [2]; 10uM, 4h) was 1.536. For the same molecule, the “Log2FC vs. DMSO, CSNK1A1 (Casein kinase I isoform alpha)” value (MOLM-13 cells [2]; 10uM, 4h) was -1.354, the “TMT protein intensity, CDKN1A” value (MOLM-13 cells [2]; 10uM, 4h) was 1.01E+05 and 8.94E+04 and the “TMT protein intensity, CSNK1A1” value (MOLM-13 cells [2]; 10uM, 4h) was 1.47E+05 and 1.71E+05.
